Measurements reported in patent publication US20230045112A1, “DISULFIRAM AND OTHER REDOX-RELATED COMPOSITIONS FOR BRAIN TUMORS” (Texas Tech University System, priority 2014, published 2023).
One block for each compound: values may come before it.

Legend:
[1] = test system: MGMT inactivated cells and xenografts; assay: Antimetabolite cytotoxicity in MGMT inactivated cells and xenografts; type: cell-based
Source text: MGMT performs stoichiometric catalysis to remove mutagenic alkyl groups and dies in the process. […] Inhibition of MGMT by siRNA or 06-benzylguanine led to an S-phase block, perturbed DNA synthesis, and re-replication of the genome.

UW228 cells = assay: Cell cycle analysis (flow cytometry) and apoptosis markers; type: cell-based, human; settings: 100 μM BCNU alone, 24 hours
cell lines = assay: Cytotoxicity of NO-aspirin for cell lines; type: cell-based
MGMT [2] = molecular target: T1, MGMT (Homo sapiens, UniProt P16455); assay: MGMT activity and protein in MGMT-proficient human cancer cell lines (HT29, T47D, HCT116); type: cell-based; parameters: endogenous in cells; host or cells: HT29, T47D, HCT116
T1 sequence (P16455 1-207): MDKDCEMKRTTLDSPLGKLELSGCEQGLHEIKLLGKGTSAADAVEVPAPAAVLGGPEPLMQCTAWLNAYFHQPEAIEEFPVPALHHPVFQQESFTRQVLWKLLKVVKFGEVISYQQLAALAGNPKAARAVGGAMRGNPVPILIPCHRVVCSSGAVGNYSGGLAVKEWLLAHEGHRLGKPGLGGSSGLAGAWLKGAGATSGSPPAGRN

NQO1 [3] = molecular target: T2, NQO1 (Homo sapiens, UniProt P15559); assay: NQO1 activity inhibition; type: biochemical
Source text: (§1) A tumor-targeted NIR small-molecule dye called NQ-THR, was made and specifically accumulated in cancer cells for tumor NIR imaging and simultaneously trigger tumoricidal oxidative stress by acting as an NQO1-bioactivatable substrate. This […] fluorophore provides sufficient specificity and imaging guidance to promote tumor-specific cell death, which can be used for the cancer treatment as well. NQ-IND, the precursor of NQ-THR is an NQO1 activated prodrug itself, which undergoes redox-cycling to produce ROS in brain tumor cells. The functional groups on NQ-IND are amenable to designing NQO1-activated imaging and therapeutic compounds. ES936 (FIG. 20A) is a highly specific, potent, mechanism-based NQO1 inhibitor (55). Inspired by the structure of ES936, the inventors prepared a compound NQ-IND (FIG. 20B) by removing the inhibitory nitroaryl group. NQ-IND was tested for its activity against NQO1 inhibition and cell viability. […]. On the other hand, NQ-IND attached with the NIR fluorescent dyes can be used to generate a theranostic fluorescent probe NQ-THR with both imaging and therapeutic capabilities.

cancer cell lines = assay: Cell viability, cancer cell lines (NQ-IND); type: cell-based
Source text: as §1

normal cells = assay: Cell viability, normal cell lines (NQ-IND); type: cell-based
Source text: as §1

ROS = assay: Intracellular ROS by NQ-IND (DCF-DA fluorescence); type: cell-based
Source text: as §1

GBM cell lines = assay: Potentiation of TMZ in DMG-treated cells; type: cell-based
Source text: (§2) Synthesis of 2,4-Dimethylene glutaric acid (DMG), an α-ketoglutaric acid (α-KG) mimic for induction of epigenetic modifications: D-2 hydroxyglutarate (D-2HG) effectively replaces the normal metabolite, α-KG in 70% of low-grade pediatric gliomas with IDH mutations. α-KG is a substrate for TET1, TET2 DNA demethylases, and histone demethylases that maintain normal epigenetic homeostasis. D2-HG directly contributes to the CpG-island methylator phenotype (G-CIMP) and MGMT promoter methylation by competing with α-KG and inhibiting the demethylases. As an innovative strategy of understanding the glioma pathology and turning the tide against it, the inventors prepared DMG, a powerful α-KG derivative to replace the natural metabolite in epigenetic demethylase reactions; induction of such therapeutic methylation in non-IDH mutant GBMs was postulated to regress the tumors. […] DMG efficacy in xenografts and MGMT methylation therein are being tested.

TET1, MGMT = assay: Effect of DMG on TET1 and MGMT activities; type: cell-based; settings: GBM cell lines
Source text: as §2

[4] = test system: NQO1-proficient A549 tumors; assay: NIR imaging of NQO1-proficient tumors in live mice; type: in vivo, nude mice; settings: one mg/kg intravenously
Source text: (§3) Engineering of NQO1 turn-on near-infrared (NIR) fluorophores and theranostic drugs thereof for pediatric brain cancer therapy and multimodality imaging. There is an imperative need for the development of cancer-specific imaging and therapeutic multifunctional or theranostic agents that can allow both imaging and drug delivery. Imaging in the near-infrared (NIR) range of 650-900 nm has been widely used in clinical procedures, because of deep tissue penetration, low autofluorescence, and reduced photon scattering. The inventors developed enzyme-activatable, cell-permeable, non-toxic, and biocompatible ‘turn-on’ NIR fluorescent probes (NIR-ASM, NQ-DCP) that provide accurate detection and visualization of endogenous NQO1 activity both in vitro and an in vivo preclinical model of lung and brain cancers. These fluorophores remain non-fluorescent until cleavage by NQO1 catalysis. In this study, subcutaneous tumors of A549 lung cancer (NQO1-positive) and MDAMB-231 breast cancer (NQO1 negative) were developed in the same animal on opposite flanks.
(§4) The animals were imaged in a IVIS imager at 500-640 nm.

[5] = test system: NQO1-deficient MDAMB-231 tumors; assay: NIR imaging of NQO1-deficient tumors in live mice; type: in vivo, nude mice; settings: one mg/kg intravenously
Source text: as §3, §4

[6] = test system: Normal astrocytes and NQO1-null cells; assay: Cytotoxicity of GNQ against normal and NQO1-null cells; type: cell-based
Source text: (§5) (FIG. 15B) Cytotoxicity of GNQ against normal cells astrocytes and primary neurons. (FIG. 15C) Cytotoxicity against NQO1 null cell line MDA-MB-231. (FIG. 15D) Cytotoxicity values against normal and cancer cells in micromoles. […] Normal astrocytes and NQO1-null cells were not sensitive to GNQ.

brain tumor cells = assay: Cytotoxicity of GNQ against brain tumor cells, NQO1 dependence; type: cell-based; settings: coincubation with ES936 or dicumarol
Source text: as §5

NQO1 [7] = molecular target: T2, NQO1; assay: NQO1 substrate assay (NADH utilization); type: biochemical
Protocol: (§6) (FIG. 17A). The generation of ROS by GNQ was assessed by using fluorescent probes DCFDA and DHE (FIG. 17C). GNQ acts as NQO1 substrate in vitro. (FIG. 17B) Reduction pathways and subsequent reactions of GNQ. (FIG. 17C) Intracellular ROS levels were measured using DCFDA and DHE. (FIG. 17D) Anti-oxidants reversed the GNQ induced apoptosis. Antitumor efficacy of GNQ against intracranial DAOY medulloblastoma: The BBB permeability of GNQ was examined by pharmacokinetic analysis after IV injections in normal mice. […] Intracranial DAOY tumors were set up in nude mice and the tumor growth was assessed by quantitative bioluminescence. […] FIG. 18A, 18B show complete suppression of intracranial DAOY medulloblastoma growth by GNQ. GNQ was given IP at 25 mg/kg/d, 5 d/wk for about 4 weeks. […] (FIG. 18D) Ex-vivo bioluminescence from the isolated brains (FIG. 18E) Accumulation of GNQ in the brain when compared to plasma. (FIG. 18F) H&E staining of mouse brain sections showing the elimination of […] by GNQ. (FIG. 18G) Mean tumor volume radiance in the GNQ-treated group was compared with that in the control. Different substitutions (halogens, aryl, alkyl, and alkoxy groups) can be made to GNQ to append alkyl side chains to impart hydrophobicity to prepare BBB penetrating analogs.

[8] = test system: Reactive oxygen species (ROS); assay: Intracellular ROS by GNQ (DCFDA and DHE); type: cell-based
Protocol: as §6

[9] = Pharmacokinetic analysis of GNQ after IV injections, BBB permeability; type: in vivo; settings: mouse, brain, normal mice, read-out: accumulation in the brain, % of plasma levels
Protocol: as §6

[10] = test system: intracranial DAOY medulloblastoma; assay: Intracranial DAOY medulloblastoma in nude mice treated with GNQ, bioluminescence; type: in vivo; settings: IP 25 mg/kg/d, 5 d/wk for about 4 weeks
Protocol: Intracranial glioblastoma xenograft development in nude mice: GBM cells stably expressing luciferase and GFP are suspended at 2×10^5 cells/5 μl sterile PBS injected into mouse brains. For developing […], mice are anesthetized and placed on a stereotactic apparatus. For developing breast cancer brain metastases xenografts, brain-seeking breast cancer cells are injected into the left ventricle of the heart of each mouse under anesthesia. Three weeks later the mice are imaged for intracranial Firefly luciferase activity. Mice with intracranial bioluminescence are randomly divided into different groups for drug treatments. Imaging is performed 10 minutes after i.p. injection of D-luciferin (2 mg per animal) with mice lying in the prone position. Besides the bioluminescence studies, the survival of the human glioblastoma cell grafted mice after drug administrations are closely followed to generate the Kaplan-Meir curves.
(FIG. 17A). The generation of ROS by GNQ was assessed by using fluorescent probes DCFDA and DHE (FIG. 17C). GNQ acts as NQO1 substrate in vitro. (FIG. 17B) Reduction pathways and subsequent reactions of GNQ. (FIG. 17C) Intracellular ROS levels were measured using DCFDA and DHE. (FIG. 17D) Anti-oxidants reversed the GNQ induced apoptosis. […] Intracranial DAOY tumors were set up in nude mice and the tumor growth was assessed by quantitative bioluminescence. […]

DAOY cells = assay: Potentiation of TMZ cytotoxicity by GNQ; type: cell-based
Source text: (§7) To further validate the MGMT deficiency, tumor cells exposed to GNQ can be treated with BCNU and the interstrand DNA crosslinking induced by BCNU, which can be quantitated by ethidium bromide fluorescence assay. Thus, it is possible to take advantage of these altered DNA repair pathways to combine GNQ with TMZ and PARP inhibitors and perform antitumor efficacy studies in orthotopic xenografts of pediatric brain cancers.
(§8) FIG. 21A to 21D show the inhibition of MGMT activity (FIG. 21A) and its degradation (FIG. 21B) induced by GNQ in DAOY cells. […] (FIG. 21D) GNQ potentiates the cytotoxicity of TMZ.

MGMT [11] = molecular target: T1, MGMT; assay: MGMT inhibition by GNQ in DAOY cells; type: cell-based; parameters: endogenous in cells; host or cells: DAOY
Source text: as §7, §8

Cys145 of MGMT = molecular target: T3, Cys145 of MGMT (Homo sapiens, UniProt P16455); assay: BG-PEG-biotin probe binding to MGMT; settings: UW228 cell extracts, 20 minutes
T3 construct: hexa-histidine; made in house; host or cells: E. coli
T3 sequence (P16455 1-207): T1 sequence (P16455 1-207)

MGMT [12] = molecular target: T1, MGMT; assay: Effect of proteasome inhibitor PS-341 on degradation of DSF-modified MGMT in UW228 cells; type: cell-based; parameters: endogenous in cells; host or cells: UW228, T98G
Source text: The samples were immunoblotted and probed with MGMT antibodies (right panel). The densitometric quantitation of protein bands on the western blots is shown as a line graph on the left. […] Cell lysates were western blotted for the MGMT protein. […] Kinetics of DNA interstrand crosslinks formed in UW228 cells after treatment with […] BCNU or […] melphalan is shown. […] They were then exposed to BCNU or melphalan. At times specified, the cells were harvested, DNA isolated and the extent of interstrand crosslinking of DNA was determined using the ethidium bromide fluorescence assay. Values are mean+S.D. The results were significant at P<0.05. […] The cells were trypsinized at times indicated and analyzed by flow cytometry.
Since the MGMT inactivated by BG is degraded through ub-proteolysis, it was of interest to investigate the mode of elimination of DSF-modified MGMT protein. Therefore, first, we compared the in vitro degradation of DSF-treated and untreated rMGMT protein in rabbit reticulocyte lysates (RL), which are known to promote the proteasomal degradation. The control and DSF-modified MGMT proteins were incubated with RL in the presence of Mg++, ATP and ubiquitin at 37° C. The reaction mixtures were blotted and probed with MGMT antibodies. […] To show the involvement of the ub-proteolysis in cells a clinically used proteasome inhibitor. […]

T2 sequence (P15559 whole entry): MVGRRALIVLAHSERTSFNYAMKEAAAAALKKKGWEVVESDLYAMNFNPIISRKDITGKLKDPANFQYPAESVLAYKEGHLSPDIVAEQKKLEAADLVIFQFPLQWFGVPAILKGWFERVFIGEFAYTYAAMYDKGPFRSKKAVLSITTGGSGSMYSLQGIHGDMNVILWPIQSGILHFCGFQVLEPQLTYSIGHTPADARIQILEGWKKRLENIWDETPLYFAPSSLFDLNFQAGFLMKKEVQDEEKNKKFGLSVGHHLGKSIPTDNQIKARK

SMILES: O=c1[nH]cc(F)c(=O)[nH]1 [5FU]
increase in cytotoxicity in MGMT inactivated cells and xenografts [1]: 10-15 fold

SMILES: O=NN(CCCl)C(=O)NCCCl [BCNU, 1,3-bis-2-chloroethylnitrosourea]
G2/M blockade, % of cells (UW228 cells): 33 % of cells

SMILES: CC(=O)Oc1ccccc1C(=O)Oc1cccc(CO[N+](=O)[O-])c1 [NCX-4016, 2-(acetyloxy) benzoic acid 3-[(nitrooxy)methyl]phenyl ester]
IC50 (cell lines): > 500 µM | MGMT protein degraded (MGMT [2]; 5 μM for 2 hours): 80-90% | inhibition of MGMT activity (MGMT [2]; HT29, T47D, HCT116, 5-10 μM, within 1 hour of exposure): 90% | MGMT protein regenerated (MGMT [2]; HT29 cells, 24 hours post-incubation in drug-free medium): More than 60%

SMILES: COC1=CC(=O)c2c(c(CO)cn2C)C1=O [NQ-IND]
effect on NQO1 activity (NQO1 [3]): did not affect the activity of NQO1 | cancer cell proliferation (cancer cell lines): inhibit cancer cell proliferation selectively | effect on normal cells (normal cells): no effect on normal cells | ROS by DCF-DA fluorescence (ROS): generate ROS

SMILES: C=C(CC(=C)C(=O)O)C(=O)O [DMG, 2,4-Dimethylene glutaric acid]
potentiation of TMZ (GBM cell lines): 6-8 fold | effect on TET1, MGMT activities (TET1, MGMT): curtailed TET1, MGMT activities

SMILES: CC1=C(C)C(=O)C(C(C)(C)CC(=O)Nc2ccc(/C=C/C3=CC(=C(C#N)C#N)CC(C)(C)C3)cc2)=C(C)C1=O [NIR-ASM]
time to fluorescent signal in tumors [4]: ≤ 5 min | fluorescent signal in tumors [5]: totally negative after 3 hours

effect on NQO1 activity (NQO1 [3]): completely inhibited the NQO1 activity
SMILES: COC1=CC(=O)c2c(c(COc3ccc([N+](=O)[O-])cc3)c(C)n2C)C1=O [ES936]

SMILES: O=C1NC2(c3ccccc31)c1ccccc1C1C(=O)c3cccc(O)c3C(=O)C12 (stereo not drawn) [GNQ]
sensitivity to GNQ [6]: not sensitive | effect of NQO1 inhibitors on GNQ cytotoxicity (brain tumor cells): reversed by coincubation with NQO1 inhibitors ES936 or dicumarol | NADH utilized throughout the assay (NQO1 [7]): greater than 1 equiv. of NADH | ROS generation [8]: generates Reactive oxygen species (ROS) | Kp [9]: ≤ 0.11 | body weight as a surrogate marker for toxicity [10]: No changes in body weight | tumor bioluminescence [10]: complete loss of bioluminescence | sensitization to TMZ (DAOY cells): sensitized to TMZ | MGMT inhibition (MGMT [11]): remarkably inhibited

SMILES: CCN1C(=O)C=CC1=O [NEM, N-ethylmaleimide]
BG-PEG-biotin labeling of MGMT in cell extracts after drug (Cys145 of MGMT): prevented the BG-labeling of the protein

decrease of MGMT degradation (MGMT [12]; 10 μM PS341 co-incubation with 50 μM DSF for 6 hours): 20% | reduction in the loss of MGMT protein (MGMT [12]; pretreated 6 hours with 10 μM PS341 followed by 50 μM DSF for 12 hours): > 50%
SMILES: CC(C)C[C@H](NC(=O)[C@H](Cc1ccccc1)NC(=O)c1cnccn1)B(O)O [PS341, bortezomib]
